# Results reported in US20260223854A1, “AN HERBICIDAL COMBINATION, COMPOSITION AND METHOD OF CONTROLLING WEEDS USING THE SAME” (priority 2023, published 2026).
# What was measured:
# Format in all cases: in vivo
# Brachiaria decumbens = assay: Greenhouse post-emergence herbicidal activity on Brachiaria decumbens; details: 3 DAA, L-glufosinate ammonium 150 g a.i./ha
# Method: (§1) The expected efficacy of a combination of L-glufosinate ammonium and the other herbicides was calculated using the well-established Colby method. Any difference between the observed and “expected” efficacy could be attributed to synergy between the two compounds.
# (§2) In the Colby method, the expected (or predicted) response of a combination of herbicides is calculated by taking the product of the observed response for each individual component of the combination when applied alone, divided by 100, and subtracting this value from the sum of the observed response for each component when applied alone. An unexpected enhancement in efficacy of the combination is then determined by comparing the observed response of the combination to the expected (or predicted) response as calculated from the observed response of each individual component alone. If the observed response of the combination is greater than the expected (or predicted) response, or stated conversely, if the difference between the observed and expected response is greater than zero, then the combination is said to be synergistic or unexpectedly effective (Colby, S. R., Weeds, 1967 (15), p. 20-22). The Colby method requires only a single dose of each herbicide applied alone and the mixture of both doses. The formula used to calculate the expected efficacy (EE) which was compared with the observed efficacy (OE) to determine the efficacy of the present disclosure is explained hereinbelow:
# (§3) Methodology: Greenhouse trials were conducted to evaluate the efficacy of the combination of L-glufosinate ammonium and triketone herbicides—mesotrione and tembotrione—on weeds Amaranthus viridis, Borreria verticillata, Brachiaria decumbens and Eleusine indica.
# (§4) The soil used was sandy clay loam—sand: 68.0%; silt: 8.0%; clay: 24.0%.
# (§5) All treatments were in 4 replications per treatment with a spray volume of 150 L/ha.
# The percentage efficacy was calculated at 14 days after application (DAA). The target weed was Brachiaria decumbens, and the concentration of the herbicide and the results are recorded in Table 1.
# The percentage efficacy was calculated at 3 days of application (DAA). The target weed was Brachiaria decumbens and the concentration of the herbicide and the results are recorded in Table 7.
# Borreria verticillata = assay: Greenhouse post-emergence herbicidal activity on Borreria verticillata; details: L-glufosinate ammonium 150 g a.i./ha
# Method: as §1, §2, §3, §4, §5
# The percentage efficacy was calculated at 28 and 35 days after application (DAA). The target weed was Borreria verticillata, and the concentration of the herbicide and the results are recorded in Table 2.
# The percentage efficacy was calculated at 3 and 7 days of application (DAA). The target weed was Borreria verticillata, and the concentration of the herbicide and the results are recorded in Table 6.
# Eleusine indica = assay: Greenhouse post-emergence herbicidal activity on Eleusine indica; details: L-glufosinate ammonium 150 g a.i./ha
# Method: as §1, §2, §3, §4, §5
# The percentage efficacy was calculated at 14 days after application (DAA). The target weed was Eleusine indica, and the concentration of the herbicide and the results are recorded in Table 3.
# The percentage efficacy was calculated at 3, 7, 21, 28, 35 days of application (DAA). The target weed was Eleusine indica, and the concentration of the herbicide and the results are recorded in Table 8.
# Amaranthus viridis = assay: Greenhouse post-emergence herbicidal activity on Amaranthus viridis; details: L-glufosinate ammonium 150 g a.i./ha
# Method: as §1, §2, §3, §4, §5
# The percentage efficacy was calculated at 3 and 7 days after application (DAA). The target weed was Amaranthus viridis, and the concentration of the herbicide and the results are recorded in Table 4.
# The percentage efficacy was calculated at 3 and 7 days of application (DAA). The target weed was Amaranthus viridis, and the concentration of the herbicide and the results are recorded Table 5.
# [1] = mesotrione 100 g a.i./ha, Table 1
# [2] = tembotrione 53 g a.i./ha, Table 7
# [3] = 3 DAA, tembotrione 53 g a.i./ha, Table 6
# [4] = 7 DAA, tembotrione 53 g a.i./ha, Table 6
# [5] = 28 DAA, mesotrione 100 g a.i./ha, Table 2
# [6] = 35 DAA, mesotrione 100 g a.i./ha, Table 2
# [7] = 3 DAA, tembotrione 53 g a.i./ha, Table 8
# [8] = 7 DAA, tembotrione 53 g a.i./ha, Table 8
# [9] = 14 DAA, mesotrione 100 g a.i./ha, Table 3
# [10] = 21 DAA, tembotrione 53 g a.i./ha, Table 8
# [11] = 28 DAA, tembotrione 53 g a.i./ha, Table 8
# [12] = 35 DAA, tembotrione 53 g a.i./ha, Table 8
# [13] = 3 DAA, mesotrione 100 g a.i./ha, Table 4
# [14] = 3 DAA, tembotrione 53 g a.i./ha, Table 5
# [15] = 7 DAA, mesotrione 100 g a.i./ha, Table 4
# [16] = 7 DAA, tembotrione 53 g a.i./ha, Table 5
Compound,% Control (Brachiaria decumbens; [1]) [%],% Control (Brachiaria decumbens; [2]) [%],% Control (Borreria verticillata; [3]) [%],% Control (Borreria verticillata; [4]) [%],% Control (Borreria verticillata; [5]) [%],% Control (Borreria verticillata; [6]) [%],% Control (Eleusine indica; [7]) [%],% Control (Eleusine indica; [8]) [%],% Control (Eleusine indica; [9]) [%],% Control (Eleusine indica; [10]) [%],% Control (Eleusine indica; [11]) [%],% Control (Eleusine indica; [12]) [%],% Control (Amaranthus viridis; [13]) [%],% Control (Amaranthus viridis; [14]) [%],% Control (Amaranthus viridis; [15]) [%],% Control (Amaranthus viridis; [16]) [%]
"CP(=O)(O)CC[C@H](N)C(=O)O.N [L-glufosinate ammonium, ammonium (2S)-2-amino-4-(methylphosphinato) butyric acid]",40,40,55,80,90,85,40,50,30,50,30,40,40,50,80,80
"CS(=O)(=O)c1ccc(C(=O)C2C(=O)CCCC2=O)c([N+](=O)[O-])c1 [Mesotrione, mesotrione]",10,–,–,–,75,75,–,–,20,–,–,–,10,–,30,–
"CS(=O)(=O)c1ccc(C(=O)C2C(=O)CCCC2=O)c(Cl)c1COCC(F)(F)F [Tembotrione, tembotrione]",–,8,10,30,–,–,5,15,–,28,35,20,–,10,–,30
